The experiment has as its target Cyclic GMP-AMP synthase (Homo sapiens, UniProt Q8N884). Kind of experiment: Biochemical (In Vitro) Assay.

Sequence of Cyclic GMP-AMP synthase (Q8N884 whole entry): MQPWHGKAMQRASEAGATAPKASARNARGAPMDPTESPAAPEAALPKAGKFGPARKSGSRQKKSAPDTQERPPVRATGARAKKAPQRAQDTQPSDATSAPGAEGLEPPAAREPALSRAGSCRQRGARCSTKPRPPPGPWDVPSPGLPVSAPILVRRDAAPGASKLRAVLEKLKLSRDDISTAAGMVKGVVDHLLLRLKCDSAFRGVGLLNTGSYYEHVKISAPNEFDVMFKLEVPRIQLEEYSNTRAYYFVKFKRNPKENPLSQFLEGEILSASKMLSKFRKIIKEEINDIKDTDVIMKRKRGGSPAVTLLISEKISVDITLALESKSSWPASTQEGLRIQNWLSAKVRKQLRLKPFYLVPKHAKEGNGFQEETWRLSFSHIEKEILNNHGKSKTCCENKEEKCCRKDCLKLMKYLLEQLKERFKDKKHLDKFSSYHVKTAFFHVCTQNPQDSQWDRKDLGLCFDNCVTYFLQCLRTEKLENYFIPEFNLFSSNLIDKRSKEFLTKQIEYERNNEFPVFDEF

What is called IC50 is the concentration that inhibits the measured activity by half. A high value points to lower potency. Consider `CC1(C#N)CCCN(c2cc(Cl)cnc2O[C@H]2C[C@@H](C(=O)O)N(c3nc(C(F)F)nc4c3oc3ccccc34)C2)C1` (stereo partly drawn) [US20240342186, Example 1.04], for which it took 6 nM to reach half-maximal inhibition (IC50).

For `O=C(O)[C@@H]1C[C@H](Oc2ncc(Br)cc2N2CCOC3(COC3)C2)CN1c1nc(C(F)F)nc2c1oc1ccccc12` [US20240342186, Example 1.24], 9 nM corresponded to half-maximal inhibition (IC50).

In turn, `C#Cc1cnc(O[C@H]2C[C@@H](C(=O)O)N(c3nc(C(F)F)nc4c3oc3ccccc34)C2)c(N2CCOC3(COC3)C2)c1` [US20240342186, Example 1.25] returned an IC50 of 4 nM.

For the origin of these results see BindingDB's records for patent US20240342186 (Boehringer Ingelheim International, 2024).
